# According to US11208412B2 (DAEGU-GYEONGBUK MEDICAL INNOVATION FOUNDATION, priority 2017, dated 2021):
# Columns and labels:
# Experiment in all cases: Kinase selectivity, DiscoverX scanMAX Kinase assay panel (% control)
# Type in all cases: binding
# [1] = biological target: T1, kinases of the scanMAX Kinase assay panel (Homo sapiens, UniProt P31152); settings: ERK4; 1 uM
# T1 construct: purchased DiscoverX Co. (contract measurement) scanMAX Kinase assay panel
# Method in brief: (§1)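 Compounds tested at 1 uM against the scanMAX kinase panel. Signal expressed as % control = (compound − positive control)/(DMSO negative control − positive control) × 100, where positive control = 0% and DMSO = 100%; below 35% counted as activity on that kinase.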
# [2] = biological target: T2, kinases of the scanMAX Kinase assay panel (Homo sapiens, UniProt P51813); settings: BMX; 1 uM
# T2 construct: purchased DiscoverX Co. (contract measurement) scanMAX Kinase assay panel
# T2 sequence (P51813 1-675): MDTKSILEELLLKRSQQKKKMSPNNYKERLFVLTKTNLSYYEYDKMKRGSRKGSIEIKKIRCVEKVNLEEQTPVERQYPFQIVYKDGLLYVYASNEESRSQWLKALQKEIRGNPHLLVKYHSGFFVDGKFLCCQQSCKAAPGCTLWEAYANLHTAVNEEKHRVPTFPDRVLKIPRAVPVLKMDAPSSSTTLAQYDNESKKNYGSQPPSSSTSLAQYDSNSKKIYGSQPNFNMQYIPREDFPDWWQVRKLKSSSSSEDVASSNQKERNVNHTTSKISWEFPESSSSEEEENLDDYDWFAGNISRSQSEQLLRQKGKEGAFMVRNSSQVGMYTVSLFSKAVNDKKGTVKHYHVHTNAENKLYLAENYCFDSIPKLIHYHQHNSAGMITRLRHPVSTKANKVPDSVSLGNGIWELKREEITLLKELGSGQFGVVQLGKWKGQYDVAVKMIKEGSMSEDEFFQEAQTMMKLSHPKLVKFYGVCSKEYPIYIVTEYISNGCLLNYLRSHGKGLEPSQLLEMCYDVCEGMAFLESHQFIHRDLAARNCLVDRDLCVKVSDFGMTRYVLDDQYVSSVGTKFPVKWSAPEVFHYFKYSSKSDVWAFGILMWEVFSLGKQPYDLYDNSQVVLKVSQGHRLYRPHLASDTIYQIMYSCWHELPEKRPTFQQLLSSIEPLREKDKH
# Method in brief: as §1
# [3] = biological target: T3, kinases of the scanMAX Kinase assay panel (Homo sapiens, UniProt O94804); settings: LOK; 1 uM
# T3 construct: purchased DiscoverX Co. (contract measurement) scanMAX Kinase assay panel
# T3 sequence (O94804 whole entry): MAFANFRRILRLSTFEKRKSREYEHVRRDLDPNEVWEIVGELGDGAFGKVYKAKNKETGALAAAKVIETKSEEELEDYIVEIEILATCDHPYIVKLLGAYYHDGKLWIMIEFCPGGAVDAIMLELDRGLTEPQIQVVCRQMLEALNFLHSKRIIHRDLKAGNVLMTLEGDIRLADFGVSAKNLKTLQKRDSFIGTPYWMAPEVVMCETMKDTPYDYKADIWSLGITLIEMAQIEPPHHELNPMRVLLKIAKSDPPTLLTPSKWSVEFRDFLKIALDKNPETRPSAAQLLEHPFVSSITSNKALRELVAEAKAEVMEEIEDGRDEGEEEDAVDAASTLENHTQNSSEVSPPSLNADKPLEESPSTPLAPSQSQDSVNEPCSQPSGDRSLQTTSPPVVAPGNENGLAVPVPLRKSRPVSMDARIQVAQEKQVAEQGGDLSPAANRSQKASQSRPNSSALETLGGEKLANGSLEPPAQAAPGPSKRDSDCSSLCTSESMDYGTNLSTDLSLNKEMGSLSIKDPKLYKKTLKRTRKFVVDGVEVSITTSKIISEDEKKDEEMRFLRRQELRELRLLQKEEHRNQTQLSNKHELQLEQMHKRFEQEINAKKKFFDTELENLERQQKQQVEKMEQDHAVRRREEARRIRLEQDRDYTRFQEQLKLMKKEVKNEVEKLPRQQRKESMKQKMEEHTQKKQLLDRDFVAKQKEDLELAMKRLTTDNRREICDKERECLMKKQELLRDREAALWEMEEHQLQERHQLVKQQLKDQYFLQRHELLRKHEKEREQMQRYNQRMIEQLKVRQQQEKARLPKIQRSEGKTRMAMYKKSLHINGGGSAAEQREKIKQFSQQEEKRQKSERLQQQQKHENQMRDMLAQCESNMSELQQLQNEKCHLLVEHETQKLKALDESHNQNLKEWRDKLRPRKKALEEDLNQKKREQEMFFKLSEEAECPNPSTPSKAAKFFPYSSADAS
# Method in brief: as §1
# [4] = biological target: T4, kinases of the scanMAX Kinase assay panel (Homo sapiens, UniProt O94921); settings: PFTK1; 1 uM
# T4 construct: purchased DiscoverX Co. (contract measurement) scanMAX Kinase assay panel
# T4 sequence (O94921 whole entry): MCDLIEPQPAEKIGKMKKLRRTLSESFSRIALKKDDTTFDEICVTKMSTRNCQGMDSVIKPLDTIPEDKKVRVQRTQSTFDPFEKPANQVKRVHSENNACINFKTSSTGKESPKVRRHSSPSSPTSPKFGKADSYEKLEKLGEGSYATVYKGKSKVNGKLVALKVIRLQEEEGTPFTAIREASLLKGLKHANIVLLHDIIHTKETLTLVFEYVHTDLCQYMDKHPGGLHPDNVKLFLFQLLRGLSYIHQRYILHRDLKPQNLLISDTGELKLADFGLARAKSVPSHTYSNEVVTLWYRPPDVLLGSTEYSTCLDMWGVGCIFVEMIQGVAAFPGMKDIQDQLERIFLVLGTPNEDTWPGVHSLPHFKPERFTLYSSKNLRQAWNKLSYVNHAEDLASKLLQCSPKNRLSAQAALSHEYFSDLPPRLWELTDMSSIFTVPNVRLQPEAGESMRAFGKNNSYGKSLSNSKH
# Method in brief: as §1
# [5] = biological target: T5, kinases of the scanMAX Kinase assay panel (Homo sapiens, UniProt Q9P289); settings: MST4; 1 uM
# T5 construct: purchased DiscoverX Co. (contract measurement) scanMAX Kinase assay panel
# T5 sequence (Q9P289 whole entry): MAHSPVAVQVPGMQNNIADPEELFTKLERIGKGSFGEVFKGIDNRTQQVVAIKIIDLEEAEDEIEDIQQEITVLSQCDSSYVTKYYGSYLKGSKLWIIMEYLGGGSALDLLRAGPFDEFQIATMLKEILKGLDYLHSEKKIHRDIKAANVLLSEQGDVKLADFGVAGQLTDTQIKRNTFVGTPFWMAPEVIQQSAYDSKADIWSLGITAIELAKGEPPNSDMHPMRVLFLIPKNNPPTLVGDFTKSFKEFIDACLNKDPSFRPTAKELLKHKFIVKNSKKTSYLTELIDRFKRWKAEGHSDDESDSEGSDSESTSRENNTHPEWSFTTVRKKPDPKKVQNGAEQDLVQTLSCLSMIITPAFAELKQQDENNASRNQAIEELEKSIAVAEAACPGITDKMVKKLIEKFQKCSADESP
# Method in brief: as §1
# [6] = biological target: T6, kinases of the scanMAX Kinase assay panel (Homo sapiens, UniProt P33981); settings: kinase TTK; 1 uM in DMSO
# T6 construct: purchased DiscoverX Co. (contract measurement) scanMAX Kinase assay panel
# T6 sequence (P33981 1-857): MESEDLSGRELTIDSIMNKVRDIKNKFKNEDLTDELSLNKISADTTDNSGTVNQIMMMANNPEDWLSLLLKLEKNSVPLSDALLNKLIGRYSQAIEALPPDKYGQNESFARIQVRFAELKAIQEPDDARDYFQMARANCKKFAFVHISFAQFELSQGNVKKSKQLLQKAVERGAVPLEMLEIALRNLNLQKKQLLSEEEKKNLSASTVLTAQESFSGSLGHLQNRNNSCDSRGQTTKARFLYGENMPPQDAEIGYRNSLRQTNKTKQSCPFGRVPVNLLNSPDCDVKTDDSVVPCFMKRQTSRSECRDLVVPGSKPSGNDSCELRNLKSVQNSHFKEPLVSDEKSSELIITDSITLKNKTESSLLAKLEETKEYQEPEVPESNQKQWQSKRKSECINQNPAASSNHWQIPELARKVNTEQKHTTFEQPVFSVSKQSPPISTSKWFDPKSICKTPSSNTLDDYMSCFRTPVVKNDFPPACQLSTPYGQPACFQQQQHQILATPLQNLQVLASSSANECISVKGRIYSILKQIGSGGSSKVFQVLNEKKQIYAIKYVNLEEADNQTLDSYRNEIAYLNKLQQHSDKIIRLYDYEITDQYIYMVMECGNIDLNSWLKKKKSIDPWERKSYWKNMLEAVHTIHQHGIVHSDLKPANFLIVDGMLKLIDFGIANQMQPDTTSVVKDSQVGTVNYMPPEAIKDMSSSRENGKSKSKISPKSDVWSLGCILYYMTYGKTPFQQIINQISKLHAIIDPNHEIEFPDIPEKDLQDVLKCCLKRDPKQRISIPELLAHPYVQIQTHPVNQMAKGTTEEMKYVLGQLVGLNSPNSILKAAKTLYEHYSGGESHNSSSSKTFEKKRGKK
# Method in brief: as §1
# [7] = biological target: T7, kinases of the scanMAX Kinase assay panel (Homo sapiens, UniProt Q13237); settings: PRKG2; 1 uM
# T7 construct: purchased DiscoverX Co. (contract measurement) scanMAX Kinase assay panel
# T7 sequence (Q13237 1-762): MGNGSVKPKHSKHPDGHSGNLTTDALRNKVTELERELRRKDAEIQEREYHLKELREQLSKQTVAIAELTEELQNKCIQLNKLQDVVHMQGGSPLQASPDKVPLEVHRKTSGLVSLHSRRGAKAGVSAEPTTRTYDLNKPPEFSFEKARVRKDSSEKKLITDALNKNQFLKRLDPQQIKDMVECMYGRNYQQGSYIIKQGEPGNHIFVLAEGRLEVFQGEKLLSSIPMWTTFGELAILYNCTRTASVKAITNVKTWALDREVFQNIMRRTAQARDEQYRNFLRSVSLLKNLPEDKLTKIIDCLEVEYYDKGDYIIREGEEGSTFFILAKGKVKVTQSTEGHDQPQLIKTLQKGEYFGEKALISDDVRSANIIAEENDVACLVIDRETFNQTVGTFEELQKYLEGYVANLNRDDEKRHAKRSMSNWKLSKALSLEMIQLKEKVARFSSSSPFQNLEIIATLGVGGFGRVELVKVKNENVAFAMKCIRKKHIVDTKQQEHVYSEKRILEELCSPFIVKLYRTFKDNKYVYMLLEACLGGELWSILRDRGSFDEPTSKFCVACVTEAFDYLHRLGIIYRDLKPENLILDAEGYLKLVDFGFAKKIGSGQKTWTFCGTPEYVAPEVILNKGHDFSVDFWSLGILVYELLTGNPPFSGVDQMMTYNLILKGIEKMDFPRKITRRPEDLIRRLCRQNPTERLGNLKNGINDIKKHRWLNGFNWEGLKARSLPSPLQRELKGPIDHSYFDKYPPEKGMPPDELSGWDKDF
# Method in brief: as §1
# T1 sequence (P31152 whole entry): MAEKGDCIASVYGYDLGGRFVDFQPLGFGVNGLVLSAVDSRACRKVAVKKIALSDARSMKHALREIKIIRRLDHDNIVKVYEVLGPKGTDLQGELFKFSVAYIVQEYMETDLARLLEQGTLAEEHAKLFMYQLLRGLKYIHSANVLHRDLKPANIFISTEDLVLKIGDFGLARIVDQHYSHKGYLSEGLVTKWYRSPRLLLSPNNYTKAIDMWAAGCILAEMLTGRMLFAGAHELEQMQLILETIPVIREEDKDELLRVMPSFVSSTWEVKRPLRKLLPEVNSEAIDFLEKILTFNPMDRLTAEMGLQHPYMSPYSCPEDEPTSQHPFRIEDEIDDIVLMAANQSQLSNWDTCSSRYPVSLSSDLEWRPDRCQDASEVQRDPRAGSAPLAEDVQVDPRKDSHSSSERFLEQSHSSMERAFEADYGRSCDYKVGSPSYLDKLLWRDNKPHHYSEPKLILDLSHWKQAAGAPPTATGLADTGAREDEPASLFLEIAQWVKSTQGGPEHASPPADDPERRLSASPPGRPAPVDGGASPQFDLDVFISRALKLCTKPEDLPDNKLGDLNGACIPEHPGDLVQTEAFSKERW
SMILES,remaining binding at 1 µM [1] [%],remaining binding at 1 µM [2] [%],remaining binding at 1 µM [3] [%],remaining binding at 1 µM [4] [%],remaining binding at 1 µM [5] [%],remaining binding at 1 µM [6] [%],remaining binding at 1 µM [7] [%]
"CC1(Nc2nc(Nc3cnn([C@H]4CCN(C5COC5)C[C@@H]4F)c3Cl)nc3[nH]cc(C#N)c23)CC1 [Example 52, 2-((5-chloro-1-((3S,4S)-3-fluoro-1-(oxetane-3-yl)piperidine-4-yl)-1H-pyrazole-4-yl)amino)((1-methylcyclopropyl)amino)-7H-pyrrolo[2,3-d]pyrimidine-5-carbonitrile]",100,39,74,100,28,0.25,94
"CNc1nc(Nc2ccc(C(=O)N3CCOCC3)cc2OC)nc2[nH]cc(C#N)c12 [Example 1, 2-((2-methoxy-4-(morpholine-4-carbonyl)phenyl)amino)-4-(methylamino)-7H-pyrrolo[2,3-d]pyrimidine-5-carbonitrile]",95,93,95,97,69,12,100
"CCNc1nc(Nc2ccc(C(=O)N3CCC(N4CCOCC4)CC3)cc2OC)nc2[nH]cc(C(F)(F)F)c12 [Example 104, (4-((4-(ethylamino)-5-(trifluoromethyl)-7H-pyrrolo[2,3-d]pyrimidine-2-yl)amino)-3-methoxyphenyl)(4-morpholinopiperidine-1-yl)methanone]",92,94,100,96,100,1.4,91
